Results published in ChEMBL document CHEMBL5154793, “Discovery of Thieno[2,3-d]pyrimidine-based KRAS G12D inhibitors as potential anticancer agents via combinatorial virtual screening” (Eur J Med Chem, 2022).
Activity calls are given as the source filed them. The rule behind the calls is not given here.

Legend:
CT26 [1] = test: Antitumor activity against mouse CT26 cells allografted in BALB/c mouse assessed as inhibition of tumor growth at 40 mg/kg, ip administered once a day for 10 days; type: functional; conditions: CT26, 240 h, time 10 day, read-out: TGI
[2] = Toxicity in BALB/c mouse allografted with mouse CT26 cells assessed as RDW-CV level at 40 to 60 mg/kg, ip administered once a day for 10 days (reference value: 13.3 to 23.8 %); type: organism-based; conditions: in vivo, 240 h, dose 40-60 mg/kg, time 10 day
SW1990 [3] = test: Induction of apoptosis in human SW1990 cells assessed as late apoptotic cells at 4 uM measured after 24 hrs by PI/Annexin V staining based flow cytometric analysis (reference value: 3.75%); type: functional
[4] = Toxicity in BALB/c mouse allografted with mouse CT26 cells assessed as monocyte level at 40 to 60 mg/kg, ip administered once a day for 10 days (reference value: 0.170 to 0.540 10^9/L); type: organism-based; conditions: in vivo, 240 h, dose 40-60 mg/kg, time 10 day
[5] = Toxicity in BALB/c mouse allografted with mouse CT26 cells assessed as neutrophil level at 40 to 60 mg/kg, ip administered once a day for 10 days (reference value: 1.080 to 1.250 10^9/L); type: organism-based; conditions: in vivo, 240 h, dose 40-60 mg/kg, time 10 day
[6] = tested on: GTPase KRas (Homo sapiens), P01116 [G12D]; test: Binding affinity to human his-tagged KRAS G12D mutant assessed as change in enthalpy by isothermal titration calorimetry
SW1990 [7] = test: Induction of apoptosis in human SW1990 cells assessed as viable cells at 4 uM measured after 24 hrs by PI/Annexin V staining based flow cytometric analysis (reference value: 82.9%); type: functional; conditions: read-out: Activity
SW1990 [8] = test: Induction of apoptosis in human SW1990 cells assessed as early apoptotic cells at 4 uM measured after 24 hrs by PI/Annexin V staining based flow cytometric analysis (reference value: 10.7%); type: functional
CT26 [9] = test: Induction of apoptosis in mouse CT26 cells assessed as necrotic cells at 8 uM measured after 24 hrs by PI/Annexin V staining based flow cytometric analysis (reference value: 0.789%); type: functional
[10] = Toxicity in BALB/c mouse allografted with mouse CT26 cells assessed as MCV level at 40 to 60 mg/kg, ip administered once a day for 10 days (reference value: 16 to 47 fL); type: organism-based; conditions: in vivo, 240 h, dose 40-60 mg/kg, time 10 day
CT26 [11] = test: In vivo inhibition of KRAS G12D mutant (unknown origin) mediated downstream signalling in mouse CT26 cells allografted in BALB/c mouse assessed as decrease in phosphorylation level of Raf in tumor tissue at 40 to 60 mg/kg, ip administered once a day for 10 days by Western blotting analysis; type: functional, organism-based; conditions: dose 40-60 mg/kg, time 10.0 day
SW1990 [12] = test: Inhibition of GTP bound KRAS in human SW1990 cells assessed as down regulation of KRAS-GTP protein level incubated for 12 hrs by Pull-Down based Western blotting analysis; type: functional, cell-based; conditions: dose 10-20 µM, DDE = dose-dependent effect
[13] = Toxicity in BALB/c mouse allografted with mouse CT26 cells assessed as MPV level at 40 to 60 mg/kg, ip administered once a day for 10 days (reference value: 15 to 63 fL); type: organism-based; conditions: in vivo, 240 h, dose 40-60 mg/kg, time 10 day
CT26 [14] = test: Induction of apoptosis in mouse CT26 cells assessed as necrotic cells at 4 uM measured after 24 hrs by PI/Annexin V staining based flow cytometric analysis (reference value: 0.789%); type: functional
SW1990 [15] = test: Induction of apoptosis in human SW1990 cells assessed as necrotic cells at 4 uM measured after 24 hrs by PI/Annexin V staining based flow cytometric analysis (reference value: 2.69%); type: functional
[16] = tested on: GTPase KRas (Homo sapiens), P01116 [G12D]; test: Binding affinity to human his-tagged KRAS G12D mutant assessed as gibbs free energy change by isothermal titration calorimetry
SW1990 [17] = test: Induction of apoptosis in human SW1990 cells assessed as early apoptotic cells at 2 uM measured after 24 hrs by PI/Annexin V staining based flow cytometric analysis (reference value: 10.7%); type: functional
SW1990 [18] = test: Induction of apoptosis in human SW1990 cells assessed as viable cells at 8 uM measured after 24 hrs by PI/Annexin V staining based flow cytometric analysis (reference value: 82.9%); type: functional; conditions: read-out: Activity
CT26 [19] = test: Inhibition of KRAS G12D mutant (unknown origin) downstream signalling in mouse CT26 cells assessed as suppression of ERK phosphorylation incubated for 24 hrs by pull down based Western blotting analysis; type: cell-based; conditions: dose <= 16.0 µM, DDE = dose-dependent effect
[20] = tested on: GTPase KRas (Homo sapiens), P01116 [G12D]; test: Inhibition of KRAS G12D mutant downstream signalling in human SW1990 cells assessed as suppression of ERK phosphorylation incubated for 24 hrs by pull down based Western blotting analysis; type: cell-based; conditions: dose <= 16.0 µM, DDE = dose-dependent effect
[21] = biological target: GTPase KRas (Homo sapiens) (UniProt P01116); test: Inhibition of wild type KRAS (unknown origin) downstream signalling in human HCT-116 cells assessed as suppression of Raf phosphorylation incubated 24 hrs by pull down based Western blotting analysis; type: cell-based; conditions: dose <= 8.0 µM, DDE = dose-dependent effect
CT26 [22] = test: Induction of apoptosis in mouse CT26 cells assessed as early apoptotic cells at 2 uM measured after 24 hrs by PI/Annexin V staining based flow cytometric analysis (reference value: 11.2%); type: functional
[23] = biological target: GTPase KRas (Homo sapiens) (UniProt P01116); test: Inhibition of wild type KRAS (unknown origin) downstream signalling in human HCT-116 cells assessed as suppression of ERK phosphorylation incubated for 24 hrs by pull down based Western blotting analysis; type: cell-based; conditions: dose <= 8.0 µM, DDE = dose-dependent effect
[24] = Toxicity in BALB/c mouse allografted with mouse CT26 cells assessed as effect on liver morphology at 40 to 60 mg/kg, ip administered once a day for 10 days by H and E staining based microscopic analysis; type: organism-based; conditions: in vivo, 240 h, dose 40-60 mg/kg, time 10 day
[25] = Toxicity in BALB/c mouse allografted with mouse CT26 cells assessed as effect on kidney morphology at 40 to 60 mg/kg, ip administered once a day for 10 days by H and E staining based microscopic analysis; type: organism-based; conditions: in vivo, 240 h, dose 40-60 mg/kg, time 10 day
SW1990 [26] = test: Induction of apoptosis in human SW1990 cells assessed as early apoptotic cells at 8 uM measured after 24 hrs by PI/Annexin V staining based flow cytometric analysis (reference value: 10.7%); type: functional
[27] = Toxicity in BALB/c mouse allografted with mouse CT26 cells assessed as PCT level at 40 to 60 mg/kg, ip administered once a day for 10 days (reference value: 0.226 to 6.4 %); type: organism-based; conditions: in vivo, 240 h, dose 40-60 mg/kg, time 10 day
CT26 [28] = test: Induction of apoptosis in mouse CT26 cells assessed as early apoptotic cells at 4 uM measured after 24 hrs by PI/Annexin V staining based flow cytometric analysis (reference value: 11.2%); type: functional
[29] = tested on: GTPase KRas (Homo sapiens), P01116 [G12D]; test: Binding affinity to human his-tagged KRAS G12D mutant assessed as change in entropy by isothermal titration calorimetry
CT26 [30] = test: Inhibition of KRAS G12D mutant (unknown origin) downstream signalling in mouse CT26 cells assessed as suppression of Raf phosphorylation incubated for 24 hrs by pull down based Western blotting analysis; type: cell-based; conditions: dose <= 16.0 µM, DDE = dose-dependent effect
CT26 [31] = test: Induction of apoptosis in mouse CT26 cells assessed as viable cells at 8 uM measured after 24 hrs by PI/Annexin V staining based flow cytometric analysis (reference value: 84.8%); type: functional; conditions: read-out: Activity
CT26 [32] = test: Induction of apoptosis in mouse CT26 cells assessed as late apoptotic cells at 4 uM measured after 24 hrs by PI/Annexin V staining based flow cytometric analysis (reference value: 3.21%); type: functional

Sequence of GTPase KRas (Homo sapiens), P01116 [G12D] (P01116 whole entry G12D, looked up): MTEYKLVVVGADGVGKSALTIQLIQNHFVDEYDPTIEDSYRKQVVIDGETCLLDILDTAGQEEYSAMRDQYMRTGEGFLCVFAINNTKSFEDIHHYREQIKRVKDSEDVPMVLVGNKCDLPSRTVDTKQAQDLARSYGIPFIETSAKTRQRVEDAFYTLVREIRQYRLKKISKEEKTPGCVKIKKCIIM
Sequence of GTPase KRas (Homo sapiens) (P01116 whole entry, looked up): as the sequence (P01116 whole entry G12D, looked up) above, with D12G counted along it

**Q.** For COc1ccc(C(F)(F)F)cc1-c1cc2c(N3CC4CCC(C3)N4)ncnc2s1, which inhibition in vivo at 40 mg/kg (CT26 [1]) is on record?
**A.** 42%

**Q.** What about the Activity [2] of the same compound?
**A.** 14%

**Q.** What about the Activity (SW1990 [3]) of the same compound?
**A.** 29.2%

**Q.** What about the Activity [4] of the same compound?
**A.** 0.15 10^9/L

**Q.** What about the Activity [5] of the same compound?
**A.** 1.92 10^9/L

**Q.** And the deltaH [6]?
**A.** -26.6 kcal/mol

**Q.** And the viability at 4 µM (SW1990 [7])?
**A.** 47.9%

**Q.** What about the Activity (SW1990 [8]) of the same compound?
**A.** 14.2%

**Q.** And the Activity (CT26 [9])?
**A.** 6.61%

**Q.** What about the Activity [10] of the same compound?
**A.** 16.1 fL

**Q.** And the Activity (CT26 [11])?
**A.** Active

**Q.** And the inhibition (SW1990 [12])?
**A.** Dde

**Q.** And the Activity [13]?
**A.** 6.2 fL

**Q.** And the Activity (CT26 [14])?
**A.** 3.87%

**Q.** What about the Activity (SW1990 [15]) of the same compound?
**A.** 8.76%

**Q.** What about the deltaG [16] of the same compound?
**A.** -10.2 kcal/mol

**Q.** What about the Activity (SW1990 [17]) of the same compound?
**A.** 3.87%

**Q.** And the viability at 8 µM (SW1990 [18])?
**A.** 4.26%

**Q.** And the Activity (CT26 [19])?
**A.** Dde

**Q.** What about the Activity [20] of the same compound?
**A.** Dde

**Q.** What about the Activity [21] of the same compound?
**A.** Dde

**Q.** And the Activity (CT26 [22])?
**A.** 15.4%

**Q.** And the Activity [23]?
**A.** Dde

**Q.** And the Activity [24]?
**A.** Non-Toxic

**Q.** And the Activity [25]?
**A.** Non-Toxic

**Q.** And the Activity (SW1990 [26])?
**A.** 37.1%

**Q.** And the Activity [27]?
**A.** 0.372%

**Q.** What about the Activity (CT26 [28]) of the same compound?
**A.** 36.4%

**Q.** What about the -TdeltaS [29] of the same compound?
**A.** 16.4 kcal/mol

**Q.** What about the Activity (CT26 [30]) of the same compound?
**A.** Dde

**Q.** And the viability at 8 µM (CT26 [31])?
**A.** 8.57%

**Q.** What about the Activity (CT26 [32]) of the same compound?
**A.** 20.9%
